Measurements published in patent US11655236B2, “Activity-based probe compounds, compositions, and methods of use” (THE BOARD OF TRUSTEES OF THE LELAND STANFORD JUNIOR …, priority 2013, dated 2023).

Tested on: cysteine cathepsins
Assay: Inhibition of probe labeling in living RAW cells by JPM-OEt pretreatment
Assay type: cell-based, mouse
Settings: pre-treatment of living RAW cells with JPM-OEt (50 μM, 1 hr); labeling by qABP 8
Protocol: RAW cells were cultured in DMEM (GIBCO) supplemented with 10% fetal bovine serum (FBS; GIBCO), 100 units/mL penicillin and 100 μg/mL streptomycin (GIBCO). 4T1 cells (ATCC) were cultured in RPMI (GIBCO) supplemented with 10% fetal bovine serum (FBS; GIBCO), 100 units/mL penicillin and 100 μg/mL streptomycin (GIBCO). All cells were cultured in a 5% CO2 humidified incubator at 37° C. For intact cell labeling, cells were exposed to probe (500× in DMSO) in culture media and incubated for 2 hr at 37° C., unless stated otherwise. Where indicated the cells were preincubated for 1 hr with the inhibitor JPM-OEt (500× in DMSO) or exposed to mouse serum (1 μl probe stock solution in DMSO added to 9 μl serum) for 4 hr before addition to the cells. After labeling, the cells were washed with PBS and resuspended in hypotonic lysis buffer (50 mM PIPES pH 7.4, 10 mM KCl, 5 mM MgCl2, 2 mM EDTA, 4 mM DTT, and 1% NP-40) and put on ice for 15 min, centrifuged at 4° C. for 30 min and supernatants were collected, and protein concentration was determined using a BCA kit (pierce). […] Labeling intensities were quantified using Image J software. […] After 15 min on ice and centrifugation at 4° C. for 30 min the supernatants were collected, and protein concentration was determined using a BCA kit (pierce). […] 4×SDS-sample buffer was added and the protein was denatured for 3 min at 100° C. and analyzed as described above. […]

JPM-OEt
blocking of probe labeling: more than 90%
